Laboratory results reported in ChEMBL document CHEMBL6120940, “Discovery of N-Aryl-N'-[4-(aryloxy)cyclohexyl]squaramide-Based Inhibitors of LXR/SREBP-1c Signaling Pathway Ameliorating Steatotic Liver Disease: Navigating the Role of SIRT6 Activation” (J Med Chem, 2024).
pIC50: −log10 of the molar value. Calls of active or inactive are those of the source. The rule behind the calls is not given here.

Columns and labels:
[1] = Stability in mouse plasma measured after 120 mins by LC-MS/MS analysis; assay type: ADME, cell-free; conditions: read-out: Stability
Mus musculus [2] = experiment: Anti-lipogenic activity against high fat died induced male C57BL/6J mouse obesity model assessed as downregulation of scd level at 15 mg/kg, po administered three times per week and measured after 5 weeks by RT-qPCT analysis; assay type: functional, organism-based
Hepatocyte [3] = experiment: Downregulation of Cd36 mRNA level in mouse Hepatocyte at 10 uM incubated for 30 mins followed by T0901317 addition by RT-qPCR analysis; assay type: functional, cell-based
HepG2 [4] = experiment: Downregulation of SREBP-1c level in human HepG2 cells at 10 uM preincubated for 30 mins followed by OSS128167 addition and measured after 12 hrs; assay type: functional, cell-based; conditions: time 12.5 hrs
[5] = Cmax in 16 hrs fasted ICR mouse at 20 mg/kg, po measured upto 8 hrs by LC-MS/MS analysis; assay type: ADME, organism-based; conditions: in vivo
Hepatocyte [6] = experiment: Inhibition of LXR-induced fat accumulation in mouse Hepatocyte at 10 uM incubated for 30 mins followed by T0901317 addition by Oil red O staining based analysis; assay type: functional, cell-based
Hepatocyte [7] = experiment: Inhibition of Scd level in mouse hepatocyte at 10 uM preincubated with compound for 30 mins followed by T0901317 addition and measured after 12 hrs; assay type: functional, cell-based; conditions: time 12.5 hrs
Mus musculus [8] = experiment: Anti-lipogenic activity against high fat died induced male C57BL/6J mouse obesity model assessed as decrease in hepatic fat content at 15 mg/kg, po administered three times per week and measured for 5 weeks by Oil red O staining based analysis; assay type: functional, organism-based
HepG2 [9] = experiment: Effect on SREBP-1a in human HepG2 cells at 10 uM pretreated with compound for 30 mins followed by T0901317 addition and measured after 12 hrs by immunoblot analysis; assay type: functional, cell-based; conditions: time 12.5 hrs
HepG2 [10] = experiment: Downregulation of LXRalpha expression level in nucleus of human HepG2 cells at 10 uM preincubated with compound for 30 mins followed by T0901317 addition and measured after 24 hrs by immunoblot analysis; assay type: functional, cell-based; conditions: time 24.5 hrs
Mus musculus [11] = experiment: Anti-lipogenic activity against high fat died induced male C57BL/6J mouse obesity model assessed as downregulation of Acaca-gene level at 15 mg/kg, po administered three times per week and measured after 5 weeks by RT-qPCT analysis; assay type: functional, organism-based
HepG2 [12] = experiment: Lipid lowering effect on palmitic acid induced lipid accumulation in human HepG2 cells at 5 uM incubated for 30 mins by Oil red O staining based analysis; assay type: functional, cell-based
HepG2 [13] = experiment: Downregulation of SREBP-1c expression level in nucleus of human HepG2 cells at 10 uM pretreated with compound for 30 mins followed by GW3965 addition and measured after 12 hrs by immunoblot analysis; assay type: functional, cell-based; conditions: time 12.5 hrs
Mus musculus [14] = experiment: Anti-lipogenic activity against high fat died induced male C57BL/6J mouse obesity model assessed as reduction hepatic triglyceride level at 15 mg/kg, po administered three times per week and measured for 5 weeks by H and E staining based analysis; assay type: functional, organism-based
HepG2 [15] = experiment: Downregulation of FASN mRNA level in human HepG2 cells at 10 uM pretreated with compound for 30 mins followed by […] addition and measured after 12 hrs by RT-qPCR analysis; assay type: functional, cell-based; conditions: time 12.5 hrs
[16] = biological target: T1, Sterol regulatory element-binding protein 1 (Homo sapiens) (UniProt P36956); experiment: Inhibition of SREBP-1c transcriptional activity in human HepG2 cells expressing LXRalpha/RXRalpha assessed as reduction in SRE-luciferase level pretreated with compound for 30 mins followed by T0901317 addition and measured after 12 hrs by Dual-Glo luciferase assay; assay type: cell-based; conditions: dose 2.5-5 µM, time 12.5 hrs
T1 sequence (whole entry): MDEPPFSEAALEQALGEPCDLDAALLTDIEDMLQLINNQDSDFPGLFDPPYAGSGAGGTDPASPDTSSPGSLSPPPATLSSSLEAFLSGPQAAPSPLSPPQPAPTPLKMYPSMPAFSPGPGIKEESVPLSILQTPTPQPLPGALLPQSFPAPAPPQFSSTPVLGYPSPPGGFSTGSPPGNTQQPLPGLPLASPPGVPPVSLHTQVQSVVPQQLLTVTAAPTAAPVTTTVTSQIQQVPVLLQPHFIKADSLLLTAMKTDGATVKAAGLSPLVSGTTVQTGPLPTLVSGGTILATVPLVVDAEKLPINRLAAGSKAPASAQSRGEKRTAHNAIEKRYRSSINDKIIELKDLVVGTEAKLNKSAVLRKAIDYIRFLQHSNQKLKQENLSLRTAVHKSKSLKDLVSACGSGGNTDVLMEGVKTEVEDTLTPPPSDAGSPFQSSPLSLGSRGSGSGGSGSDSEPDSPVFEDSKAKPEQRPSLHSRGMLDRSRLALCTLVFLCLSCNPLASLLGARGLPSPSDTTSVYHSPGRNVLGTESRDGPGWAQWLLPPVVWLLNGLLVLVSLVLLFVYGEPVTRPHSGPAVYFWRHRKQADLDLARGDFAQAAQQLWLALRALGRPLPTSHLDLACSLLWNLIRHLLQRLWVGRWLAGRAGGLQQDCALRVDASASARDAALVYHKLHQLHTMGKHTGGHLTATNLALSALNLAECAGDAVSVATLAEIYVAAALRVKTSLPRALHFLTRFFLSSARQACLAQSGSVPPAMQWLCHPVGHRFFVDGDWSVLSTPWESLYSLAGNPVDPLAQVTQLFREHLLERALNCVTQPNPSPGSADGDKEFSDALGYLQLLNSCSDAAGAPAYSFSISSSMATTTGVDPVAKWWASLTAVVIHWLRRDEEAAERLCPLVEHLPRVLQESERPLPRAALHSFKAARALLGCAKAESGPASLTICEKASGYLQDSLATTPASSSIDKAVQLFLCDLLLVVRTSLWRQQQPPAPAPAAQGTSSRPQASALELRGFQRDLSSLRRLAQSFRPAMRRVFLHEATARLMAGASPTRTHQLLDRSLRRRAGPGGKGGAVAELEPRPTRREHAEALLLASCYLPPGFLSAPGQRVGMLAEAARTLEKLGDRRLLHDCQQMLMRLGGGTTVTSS

[17] = biological target: Voltage-gated inwardly rectifying potassium channel KCNH2 (Homo sapiens, UniProt Q12809); experiment: Inhibition of human ERG expressing HEK cells by whole-cell patch clamp assay; assay type: toxicity, cell-based
Sequence of Voltage-gated inwardly rectifying potassium channel KCNH2 (Q12809 whole entry): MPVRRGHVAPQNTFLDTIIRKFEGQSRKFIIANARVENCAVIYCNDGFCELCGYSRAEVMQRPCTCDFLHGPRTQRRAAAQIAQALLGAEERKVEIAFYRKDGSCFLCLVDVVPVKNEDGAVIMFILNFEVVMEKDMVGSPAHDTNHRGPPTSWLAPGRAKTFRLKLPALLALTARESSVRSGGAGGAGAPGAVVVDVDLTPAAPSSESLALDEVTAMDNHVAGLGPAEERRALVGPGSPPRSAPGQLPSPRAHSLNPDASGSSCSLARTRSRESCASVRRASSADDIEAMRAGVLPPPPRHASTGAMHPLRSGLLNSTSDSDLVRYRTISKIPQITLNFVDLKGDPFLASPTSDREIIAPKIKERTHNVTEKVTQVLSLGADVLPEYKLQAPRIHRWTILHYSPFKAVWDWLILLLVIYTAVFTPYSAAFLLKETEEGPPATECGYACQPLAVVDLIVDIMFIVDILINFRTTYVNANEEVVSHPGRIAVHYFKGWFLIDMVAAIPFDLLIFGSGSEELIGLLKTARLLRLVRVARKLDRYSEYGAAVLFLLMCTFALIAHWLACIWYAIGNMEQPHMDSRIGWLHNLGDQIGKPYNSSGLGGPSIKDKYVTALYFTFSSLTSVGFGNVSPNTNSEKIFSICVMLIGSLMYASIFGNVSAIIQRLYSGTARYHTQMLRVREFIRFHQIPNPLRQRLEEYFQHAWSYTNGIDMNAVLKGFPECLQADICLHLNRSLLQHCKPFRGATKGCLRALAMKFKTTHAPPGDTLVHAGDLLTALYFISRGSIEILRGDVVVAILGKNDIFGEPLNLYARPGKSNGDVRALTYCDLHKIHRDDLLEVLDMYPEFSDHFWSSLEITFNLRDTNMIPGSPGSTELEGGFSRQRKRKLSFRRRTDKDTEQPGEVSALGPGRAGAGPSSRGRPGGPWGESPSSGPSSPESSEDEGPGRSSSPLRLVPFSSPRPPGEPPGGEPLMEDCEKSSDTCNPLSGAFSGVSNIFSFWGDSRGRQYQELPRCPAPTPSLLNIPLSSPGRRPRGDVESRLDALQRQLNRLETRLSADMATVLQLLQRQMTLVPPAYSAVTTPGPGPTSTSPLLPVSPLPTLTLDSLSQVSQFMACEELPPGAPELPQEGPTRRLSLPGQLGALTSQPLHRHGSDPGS

[18] = AUC last in 16 hrs fasted ICR mouse at 2 mg/kg, iv measured upto 8 hrs by LC-MS/MS analysis; assay type: ADME, organism-based; conditions: in vivo
Hepatocyte [19] = experiment: Lipid lowering effect on palmitic acid induced lipid accumulation in mouse Hepatocyte at 5 uM incubated for 30 mins by Oil red O staining based analysis; assay type: functional, cell-based
[20] = Clearance in 16 hrs fasted ICR mouse at 2 mg/kg, iv measured upto 8 hrs by LC-MS/MS analysis; assay type: ADME, organism-based; conditions: in vivo
HepG2 [21] = experiment: Downregulation of acetylated histone H3K9 level in human HepG2 cells preincubated for 30 mins followed by T0901317 addition and measured after 12 hrs; assay type: functional, cell-based; conditions: dose 5-10 µM, time 12.5 hrs
HepG2 [22] = experiment: Downregulation of SCD gene expression in human HepG2 cells in presence of T0901317 by RNA sequencing analysis; assay type: functional, cell-based
HepG2 [23] = experiment: Cytotoxicity against human HepG2 cells at >30 uM measured after 24 hrs by CCK-8 method; assay type: functional, cell-based
[24] = Stability in human plasma measured after 120 mins by LC-MS/MS analysis; assay type: ADME, cell-free; conditions: read-out: Stability

COc1ccccc1Nc1c(N[C@H]2CC[C@H](Oc3ccc([N+](=O)[O-])cc3)CC2)c(=O)c1=O
remaining at 2 h [1]: > 100%
Activity (Mus musculus [2]): Active
Activity (Hepatocyte [3]): inactive
Activity (HepG2 [4]): inactive
Cmax [5]: 2300 ng/mL
inhibition (Hepatocyte [6]): Active
inhibition (Hepatocyte [7]): Active
Activity (Mus musculus [8]): Active
Activity (HepG2 [9]): inactive
Activity (HepG2 [10]): Active
Activity (Mus musculus [11]): Active
Activity (HepG2 [12]): Active
Activity (HepG2 [13]): Active
Activity (Mus musculus [14]): Active
Activity (HepG2 [15]): Active
inhibition [16]: Dose-dependent-effect
pIC50 [17]: 4.48
AUC(0-t) at 8 h [18]: 2370 ng·h/mL
Activity (Hepatocyte [19]): Active
clearance [20]: 13.3 mL/min/kg
Activity (HepG2 [21]): Dose-dependent-effect
Activity (HepG2 [22]): Active
Activity (HepG2 [23]): Active
remaining at 2 h [24]: 94.6%
